Test [1] has as its system induction of TAT by dexamethasone in HepG2 cells. Nature of the test: Hep G2 TAT assay (inhibition of dexamethasone-induced TAT). Type of test: cell-based, human. Conditions: agonist induction of TAT, read-out: average EC50 value (half-maximal effect) of TAT production.
Test [2] concerns the target glucocorticoid receptor (GR) recombinant ligand binding domain (LBD) (Homo sapiens (Human), UniProt P04150). Put plainly: GR binding fluorescence polarisation (FP) assay. The conditions noted are these: displacement of fluorescently tagged ligand. The protocol: Binding of test compounds to the glucocorticoid receptor (GR) is determined using a fluorescence polarisation (FP) assay utilising a recombinant ligand binding domain (LBD) of GR. The test compounds are assessed by their ability to displace a fluorescently tagged ligand and detection of the resulting decrease in fluorescence polarisation.
For orientation: Fluorescence polarisation rises when a labelled molecule tumbles more slowly, as on binding a larger partner.

The test system of test [3] is induction of TAT by dexamethasone in HepG2 cells. Nature of the test: Hep G2 TAT assay (inhibition of dexamethasone-induced TAT). Type of test: cell-based, human. The conditions noted are these: challenge of 100 nM dexamethasone, IC50 converted to Ki by Cheng and Prusoff equation.

Each structure is given as a SMILES string. pEC50, pIC50, pKi: −log10 of the molar value.

glucocorticoid receptor (GR) recombinant ligand binding domain (LBD), sequence (P04150 524-758): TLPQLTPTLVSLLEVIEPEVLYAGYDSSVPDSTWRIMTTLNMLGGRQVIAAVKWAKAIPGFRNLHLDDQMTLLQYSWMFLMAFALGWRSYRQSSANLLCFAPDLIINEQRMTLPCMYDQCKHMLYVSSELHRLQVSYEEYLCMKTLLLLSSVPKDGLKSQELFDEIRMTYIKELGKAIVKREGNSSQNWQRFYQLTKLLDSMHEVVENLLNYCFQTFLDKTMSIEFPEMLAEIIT

Broadly, the pEC50 is the EC50 on a negative log10 scale, so that one unit is a factor of ten. Turning to `C[C@@H]1C[C@H]2[C@@H]3CCC4=CC(=O)C=C[C@]4(C)[C@@]3(F)[C@@H](O)C[C@]2(C)[C@@]1(O)C(=O)CO` [Dexamethasone, dexamethasone], the pEC50 in test [1] was 7.70.

As usually defined, the pIC50 is −log10 of the IC50, conventionally taken in molar units. Broadly, the pKi is −log10 of the Ki, conventionally taken in molar units. A higher pKi goes with a low Ki. For `Cc1cc2c(cnn2-c2ccc(=O)n(C)c2)cc1C1(Cc2ccccc2)CCN(S(=O)(=O)c2c(F)cccc2F)C1` (stereo not shown) [Example 315, 5-(5-(3-benzyl-1-((2,6-difluorophenyl)sulfonyl)pyrrolidin-3-yl)-6-methyl-1H-indazol-1-yl)-1-methylpyridin-2(1H)-one], the pIC50 in test [2] is 8.17. The pKi in test [3] is 7.54.

With `Cc1cc2c(cnn2-c2ccc(=O)n(C)c2)cc1C1(Cc2ccccc2)CCN(S(=O)(=O)c2cc(F)ccc2F)C1` (stereo not shown) [Example 316, 5-(5-(3-benzyl-1-((2,5-difluorophenyl)sulfonyl)pyrrolidin-3-yl)-6-methyl-1H-indazol-1-yl)-1-methylpyridin-2(1H)-one], the pIC50 in test [2] was 7.92. Also, in test [3], the negative logarithm of the Ki (pKi) was 7.49.

Regarding `Cc1cc2c(cnn2-c2ccc(=O)n(C)c2)cc1C1(Cc2ccccc2)CCN(S(=O)(=O)c2cccc(F)c2F)C1` (stereo not shown) [Example 317, 5-(5-(3-benzyl-1-((2,3-difluorophenyl)sulfonyl)pyrrolidin-3-yl)-6-methyl-1H-indazol-1-yl)-1-methylpyridin-2(1H)-one], the pIC50 in test [2] was 8.05. The same compound gave a pKi in test [3] of 7.64.

Turning to `CCCn1cc(S(=O)(=O)N2CCC(Cc3ccccc3)(c3cc4cnn(-c5ccc(=O)n(C)c5)c4cc3C)C2)cn1` (stereo not shown) [Example 318, 5-(5-(3-benzyl-1-((1-propyl-1H-pyrazol-4-yl)sulfonyl)pyrrolidin-3-yl)-6-methyl-1H-indazol-1-yl)-1-methylpyridin-2(1H)-one], in test [2], the pIC50 is 8.29. This compound showed a pKi in test [3] of 7.32.

`COc1cc2c(cnn2-c2ccc(=O)n(C)c2)cc1C1(Cc2ccccc2)CCN(S(=O)(=O)C2CC2)C1` (stereo not shown) [Example 321]: the pIC50 in test [2] was 7.85. Moreover, the pKi in test [3] was 6.57.

As for `Cc1ncc(S(=O)(=O)N2CCC(Cc3ccccc3)(c3cc4cnn(-c5ccc(=O)n(C)c5)c4cc3C)C2)cn1` (stereo not shown) [Example 322, 5-(5-(3-benzyl-1-((2-methylpyrimidin-5-yl)sulfonyl)pyrrolidin-3-yl)-6-methyl-1H-indazol-1-yl)-1-methylpyridin-2(1H)-one], in test [2], the pIC50 was 7.62. Further, the pKi in test [3] is 7.11.

`Cc1cc2c(cnn2-c2ccc(=O)n(C)c2)cc1C1(Cc2ccc(F)cc2)CCN(S(=O)(=O)c2cnn(C)c2)C1` (stereo not shown) [Example 323, 5-(5-(3-(4-fluorobenzyl)-1-((1-methyl-1H-pyrazol-4-yl)sulfonyl)pyrrolidin-3-yl)-6-methyl-1H-indazol-1-yl)-1-methylpyridin-2(1H)-one]: in test [2], the pIC50 was 7.92. Besides, the negative-log Ki (pKi) in test [3] is 7.01.

`Cc1cc2c(cnn2-c2ccc(=O)n(C)c2)cc1C1(Cc2ccc(F)cc2)CCN(S(=O)(=O)c2cnn(C)n2)C1` (stereo not shown) [Example 324, 5-(5-(3-(4-fluorobenzyl)-1-((2-methyl-2H-1,2,3-triazol-4-yl)sulfonyl)pyrrolidin-3-yl)-6-methyl-1H-indazol-1-yl)-1-methylpyridin-2(1H)-one]: the pIC50 in test [2] was 8.12. In addition, the pKi in test [3] is 7.19.

On to `CC(=O)N1CCC(S(=O)(=O)N2CCC(Cc3ccccc3)(c3cc4cnn(-c5ccc(F)cc5)c4cc3C)C2)CC1` (stereo not shown) [Example 325, 1-(4-((3-benzyl-3-(1-(4-fluorophenyl)-6-methyl-1H-indazol-5-yl)pyrrolidin-1-yl)sulfonyl)piperidin-1-yl)ethan-1-one], for which, in test [2], the pIC50 was 7.55. This compound also gave a negative-log Ki (pKi) in test [3] of 6.96.

With `Cc1cc2c(cnn2-c2ccc(=O)n(C)c2)cc1C1(Cc2ccccc2)CCN(C(=O)c2ccccc2)C1` (stereo not shown) [Example 326, 5-(5-(1-benzoyl-3-benzylpyrrolidin-3-yl)-6-methyl-1H-indazol-1-yl)-1-methylpyridin-2(1H)-one], the pIC50 in test [2] is 7.36. The same compound gave a pKi in test [3] of 7.24.

In the case of `Cc1cc2c(cnn2-c2ccc(=O)n(C)c2)cc1C1(Cc2ccccc2)CCN(C(=O)c2ccnnc2)C1` (stereo not shown) [Example 327, 5-(5-(3-benzyl-1-(pyridazine-4-carbonyl)pyrrolidin-3-yl)-6-methyl-1H-indazol-1-yl)-1-methylpyridin-2(1H)-one], the pIC50 in test [2] was 6.77. In addition, the pKi in test [3] is 6.27.

Consider `Cc1cc2c(cnn2-c2ccc(=O)n(C)c2)cc1C1(Cc2ccccc2)CCN(C(=O)C(C)(F)F)C1` (stereo not shown) [Example 328, 5-(5-(3-benzyl-1-(2,2-difluoropropanoyl)pyrrolidin-3-yl)-6-methyl-1H-indazol-1-yl)-1-methylpyridin-2(1H)-one], for which the pIC50 in test [2] was 7.74. In addition, the pKi in test [3] is 6.96.

For `Cc1cc2c(cnn2-c2ccc(=O)n(C)c2)cc1C1(Cc2ccccc2)CCN(C(=O)c2ccsc2)C1` (stereo not shown) [Example 329, 5-(5-(3-benzyl-1-(thiophene-3-carbonyl)pyrrolidin-3-yl)-6-methyl-1H-indazol-1-yl)-1-methylpyridin-2(1H)-one], the pIC50 in test [2] was 8.00. In addition, in test [3], the pKi is 6.85.

For the compound `Cc1cc2c(cnn2-c2ccc(=O)n(C)c2)cc1C1(Cc2ccccc2)CCN(C(=O)C2(C(F)(F)F)CC2)C1` (stereo not shown) [Example 330, 5-(5-(3-benzyl-1-(1-(trifluoromethyl)cyclopropane-1-carbonyl)pyrrolidin-3-yl)-6-methyl-1H-indazol-1-yl)-1-methylpyridin-2(1H)-one], in test [2], the pIC50 was 7.80. Besides, the pKi in test [3] was 6.70.

`Cc1cc2c(cnn2-c2ccc(=O)n(C)c2)cc1C1(Cc2ccccc2)CCN(C(=O)C2CC2C)C1` (stereo not shown) [Example 331, 5-(5-(3-benzyl-1-(2-methylcyclopropane-1-carbonyl)pyrrolidin-3-yl)-6-methyl-1H-indazol-1-yl)-1-methylpyridin-2(1H)-one]: the negative logarithm of the IC50 (pIC50) in test [2] is 7.82. This compound gave a pKi in test [3] of 7.00.

`Cc1cc2c(cnn2-c2ccc(=O)n(C)c2)cc1C1(Cc2ccccc2)CCN(C(=O)C2CC2)C1` (stereo not shown) [Example 332, 5-(5-(3-benzyl-1-(cyclopropanecarbonyl)pyrrolidin-3-yl)-6-methyl-1H-indazol-1-yl)-1-methylpyridin-2(1H)-one]: the pIC50 in test [2] is 7.70. The compound further gave a pKi in test [3] of 6.80.

Consider `Cc1cc2c(cnn2-c2ccc(=O)n(C)c2)cc1C1(Cc2ccccc2)CN(S(=O)(=O)c2cnn(C)n2)CC1C` (stereo not shown) [Example 335, 5-(5-(3-benzyl-4-methyl-1-((2-methyl-2H-1,2,3-triazol-4-yl)sulfonyl)pyrrolidin-3-yl)-6-methyl-1H-indazol-1-yl)-1-methylpyridin-2(1H)-one], for which the pIC50 in test [2] was 7.96. The compound further had a pKi in test [3] of 7.34.

`Cc1cc2c(cnn2-c2ccc(F)cc2)cc1C1(Cc2ccccc2)CCN(Cc2ccccc2)C1=O` (stereo not shown) [Example 337, 1,3-dibenzyl-3-(1-(4-fluorophenyl)-6-methyl-1H-indazol-5-yl)pyrrolidin-2-one]: the pIC50 in test [2] is 6.60. This compound also gave a pKi in test [3] of 6.96.

As for `CS(=O)(=O)N1CCC(Cc2ccccc2)(c2ccc3c(cnn3-c3ccc(F)cc3)c2)C1=O` (stereo not shown) [Example 338, 3-benzyl-3-(1-(4-fluorophenyl)-1H-indazol-5-yl)-1-(methylsulfonyl)pyrrolidin-2-one], in test [2], the pIC50 was 7.59. Also, the pKi in test [3] is 6.92.

On to `Cc1cc2c(cnn2-c2ccc(F)cc2)cc1C1(Cc2ccccc2)CCN(S(C)(=O)=O)C1=O` (stereo not shown) [Example 339, 3-benzyl-3-(1-(4-fluorophenyl)-6-methyl-1H-indazol-5-yl)-1-(methylsulfonyl)pyrrolidin-2-one], for which the pIC50 in test [2] is 7.36. In test [3], this compound gave a pKi of 6.92.

In the case of `COCC1(c2cc3cnn(-c4ccc(F)cc4)c3cc2C)CCN(S(=O)(=O)c2cnn(C)c2)C1` (stereo not shown) [Example 340, 1-(4-fluorophenyl)-5-(3-(methoxymethyl)-1-((1-methyl-1H-pyrazol-4-yl)sulfonyl)pyrrolidin-3-yl)-6-methyl-1H-indazole], the pIC50 in test [2] is 7.24. This compound also had a pKi in test [3] of 6.09.

Values taken from patent US11787780B2 (CORCEPT THERAPEUTICS INCORPORATED, priority 2020, dated 2023).
